Experimental data reported in patent publication US10047084B2, “Imidazolone derivatives, pharmaceutical compositions and uses thereof” (BEIJING FORELANDPHARMA CO. LTD., priority 2013, dated 2018).

How the values were obtained:
SK-BR3/BT474 = test: CTG cell survival assay, SK-BR3/BT474; assay type: cell-based; settings: SK-BR3/BT474 cells
In short: (§1)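 Cells were exposed to compounds in a 3-fold dilution series, with a top final concentration of 10 uM in 0.1% DMSO. Viable cells were quantified by CellTiter-Glo ATP luminescence.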

MV-4-11 = test: CTG cell survival assay, MV-4-11; assay type: cell-based; settings: Homo sapiens, MV4-11, MV-4-11 cells
In short: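 Cells grown in RPMI 1640 with 10% FBS were plated and cultured 24 h at 37 °C, 5% CO2, then treated with compound diluted from 10 mM DMSO stocks. Viable cells were quantified as ATP by CellTiter-Glo luminescence.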

mTOR kinase = mTOR kinase (Homo sapiens (Human), UniProt P42345); test: mTOR kinase activity assay (TR-FRET, GFP-4EBP1 substrate); assay type: biochemical; settings: read-out: Enzyme (mTOR) IC50
Description: 1. mTOR Kinase Activity Assay: The inhibition of the mTOR protein kinase activity by the compounds was determined by the enzymatic activity assay in vitro. The detection kit supplied by Invitrogen was used to detect the inhibition of the activity of the mTOR […]. The principle of the assay was as follows: mTOR kinase, fluorescein-labeled substrate and ATP were mixed, and after the reaction, EDTA and terbium-labeled first antibody were added. During the chemical reaction process of the mTOR kinase, the antibody recognized the phosphorylated and fluorescein-labeled substrate, and then the “time-resolved fluorescence resonance energy transfer” (TR-FRET) effect was enhanced. TR-FRET effect was calculated as the ratio of signals from the acceptor fluorescein to signals from the donor terbium. The amount of the antibody bound to the tracer was directly proportional to the amount of the phosphorylated substrate after the reaction. In this way, the kinase activity can be detected. In this assay, the substrate of the mTOR kinase was green fluorescent protein-coupled 4E binding protein 1 (GFP-4EBP1).
1.1 Materials and Instruments:
4-Hydroxyethylpiperazine ethanesulfonic acid (HEPES, Sigma, Cat# SH3375), ethylene glycol-bis-(2-aminoethylether)-tetraacetic acid (EGTA, Sigma, Cat# E3889), manganese chloride (MnCl2, Sigma, Cat# M1787), Tween-20 (Tween-20, Amresco), 1,4-dithiothreitol (DTT, Merck, CB233155),

[1] = Solubility test in common aqueous vehicles; assay type: physicochemical; settings: 25° C., pH = 3
PC-3 = test: CTG cell survival assay, PC-3; assay type: cell-based; settings: Homo sapiens, PC-3 cells
In short: as §1

[2] = target: PI3K-alpha (PIK3CA/PIK3R1) (Homo sapiens (Human), UniProt P42336); test: PI3K-alpha enzyme activity assay (ADP Glo); assay type: biochemical; settings: read-out: Activity of inhibiting PI3K enzyme IC50
From the text: 3. PI3K-alpha Enzyme Activity Assay: PI3K alpha-ADP Glo Assay was employed. In the determination of PI3K enzyme activity, the detection kit supplied by Promega (Promega, Cat #: V9101) was used to detect the inhibition effect of the compounds on the activity of PI3K enzyme. The adenosine diphosphate produced during the whole enzymic reactions was quantified. The resulting values were used to calculate the activity of PI3K (Table 1).
3.1 Detection reagents: PIK3CA/PIK3R1 purchased from Invitrogen (Cat #: PV4788): The active kinase was diluted with kinase diluent III; and mixed with bovine serum albumin (BSA) in a ratio of 1:4 (5×dilution). The final BSA concentration was 50 ng/ml; and the compositions of Kinase Detection Solution I were: 25 mM MOPS, pH7.2, 12.5 mM β-glycerophosphate, 25 mM magnesium chloride, 5 mM EGTA, and 2 mM EDTA. Before use, 0.25 mM DTT was added to Kinase Detection Solution I; 250 μM adenosine triphosphate (ATP) Detection solution: 0.55 mg of ATP was dissolved in 4 ml of Kinase Detection Solution I, subdivided in 200 μl/vial and stored at −20° C. Substrate: Phosphatidylinositol (4,5) bis-phosphate; this substrate was diluted with Kinase Detection Solution I to a concentration of 125 μM. Final concentrations were: 10 μM PIP2, 10 μM ATP, 1% DMSO, and 0.0005-10 μM compounds.
a) Experimental Procedure: • 3.2.1 50 μL of the compounds diluted with dimethyl sulfoxide (DMSO) at a concentration of 100 μM were added to the 384-well dilution plate. The compounds were diluted with dimethyl sulfo de (DMSO) in a ratio of 1:3 (10 dilution concentrations plus 1 zero concentration). • 3.2.2 5 μL of the diluted compounds were transferred to the corresponding 384-well black Proxi plate (containing 47.5 μL of detection solution/well), and shaked for several seconds. • 3.2.3 2 μL of 2.5×PI3K working solution was added to 384-well black Proxi plate. • 3.2.4 2 μL of the diluted compounds were added to the detection plate (3 wells for each concentration). • 3.2.5 The plate was incubated at room temperature for 2 h. • 3.2.6 5 μL of ADP Glo Reagent was added. • 3.2.7 The plate was incubated at room temperature for 40 minutes. • 3.2.8 10 μL of the kinase detection reagent was added. • 3.2.9 The plate was incubated at room temperature for 40 minutes. • 3.2.10 The activity was detected by using Envision Reader.
The inhibition of the mTOR […] activity by the compounds ranges in 0.5 to several hundreds nanomoles, see Table 1.

Chain of mTOR kinase (P42345 1360-2549): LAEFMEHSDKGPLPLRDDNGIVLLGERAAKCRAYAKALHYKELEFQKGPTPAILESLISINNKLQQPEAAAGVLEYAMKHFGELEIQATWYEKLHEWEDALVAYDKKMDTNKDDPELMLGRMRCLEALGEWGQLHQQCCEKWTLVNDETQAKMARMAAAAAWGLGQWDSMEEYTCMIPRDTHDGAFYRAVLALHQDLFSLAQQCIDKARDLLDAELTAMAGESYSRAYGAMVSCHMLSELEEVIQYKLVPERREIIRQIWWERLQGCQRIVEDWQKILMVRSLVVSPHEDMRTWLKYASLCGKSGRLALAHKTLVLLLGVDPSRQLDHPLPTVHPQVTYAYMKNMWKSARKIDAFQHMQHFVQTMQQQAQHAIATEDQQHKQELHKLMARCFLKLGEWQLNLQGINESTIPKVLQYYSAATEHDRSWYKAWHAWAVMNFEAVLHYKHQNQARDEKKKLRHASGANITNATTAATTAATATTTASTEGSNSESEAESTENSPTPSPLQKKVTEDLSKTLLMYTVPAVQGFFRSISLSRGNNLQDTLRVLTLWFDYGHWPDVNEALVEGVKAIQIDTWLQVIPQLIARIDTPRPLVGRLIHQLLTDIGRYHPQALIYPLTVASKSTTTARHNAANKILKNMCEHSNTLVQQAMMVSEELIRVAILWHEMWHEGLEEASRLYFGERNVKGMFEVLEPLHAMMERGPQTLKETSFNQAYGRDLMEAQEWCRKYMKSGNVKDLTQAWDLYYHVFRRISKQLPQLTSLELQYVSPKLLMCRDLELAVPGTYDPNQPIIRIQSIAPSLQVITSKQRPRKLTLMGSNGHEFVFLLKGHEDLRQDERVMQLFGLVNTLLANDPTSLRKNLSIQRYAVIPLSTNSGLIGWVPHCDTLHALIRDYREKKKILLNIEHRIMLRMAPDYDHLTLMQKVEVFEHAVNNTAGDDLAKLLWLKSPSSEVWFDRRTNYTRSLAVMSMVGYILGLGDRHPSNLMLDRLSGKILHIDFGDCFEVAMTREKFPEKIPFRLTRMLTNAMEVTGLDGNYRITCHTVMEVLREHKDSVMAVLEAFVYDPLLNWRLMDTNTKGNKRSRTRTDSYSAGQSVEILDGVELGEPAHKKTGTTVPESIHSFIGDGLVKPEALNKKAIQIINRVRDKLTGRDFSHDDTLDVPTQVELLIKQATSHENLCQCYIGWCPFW
Chain of PI3K-alpha (PIK3CA/PIK3R1) (P42336 whole entry, looked up): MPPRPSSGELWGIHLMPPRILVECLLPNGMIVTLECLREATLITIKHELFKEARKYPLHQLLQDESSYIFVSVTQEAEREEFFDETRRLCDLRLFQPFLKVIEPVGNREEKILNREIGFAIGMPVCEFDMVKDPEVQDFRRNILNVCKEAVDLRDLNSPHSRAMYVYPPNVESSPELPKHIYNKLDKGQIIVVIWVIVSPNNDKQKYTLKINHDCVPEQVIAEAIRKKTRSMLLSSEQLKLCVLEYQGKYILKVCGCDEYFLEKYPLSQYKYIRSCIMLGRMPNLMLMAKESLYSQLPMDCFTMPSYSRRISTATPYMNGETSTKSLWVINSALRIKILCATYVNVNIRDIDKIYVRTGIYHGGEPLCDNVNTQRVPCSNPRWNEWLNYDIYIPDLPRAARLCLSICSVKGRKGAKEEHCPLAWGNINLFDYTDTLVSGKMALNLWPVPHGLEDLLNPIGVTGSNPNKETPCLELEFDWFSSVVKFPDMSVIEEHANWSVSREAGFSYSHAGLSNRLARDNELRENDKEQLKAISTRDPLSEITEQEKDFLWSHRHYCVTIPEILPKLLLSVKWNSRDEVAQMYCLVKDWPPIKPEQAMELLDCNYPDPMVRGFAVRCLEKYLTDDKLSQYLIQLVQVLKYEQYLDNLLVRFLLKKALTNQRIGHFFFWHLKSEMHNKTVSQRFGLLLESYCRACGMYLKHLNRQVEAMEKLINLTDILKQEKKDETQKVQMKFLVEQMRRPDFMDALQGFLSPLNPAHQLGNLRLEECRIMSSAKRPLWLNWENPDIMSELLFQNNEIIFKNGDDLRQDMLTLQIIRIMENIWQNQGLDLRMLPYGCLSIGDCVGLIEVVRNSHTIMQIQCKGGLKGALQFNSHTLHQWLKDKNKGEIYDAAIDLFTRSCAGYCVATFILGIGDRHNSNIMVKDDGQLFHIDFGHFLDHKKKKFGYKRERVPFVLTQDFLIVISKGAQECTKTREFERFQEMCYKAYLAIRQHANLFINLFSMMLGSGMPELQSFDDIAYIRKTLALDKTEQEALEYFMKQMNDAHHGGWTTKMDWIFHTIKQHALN
Chain of PI3K-alpha (PIK3CA/PIK3R1) (P27986 whole entry partner, looked up): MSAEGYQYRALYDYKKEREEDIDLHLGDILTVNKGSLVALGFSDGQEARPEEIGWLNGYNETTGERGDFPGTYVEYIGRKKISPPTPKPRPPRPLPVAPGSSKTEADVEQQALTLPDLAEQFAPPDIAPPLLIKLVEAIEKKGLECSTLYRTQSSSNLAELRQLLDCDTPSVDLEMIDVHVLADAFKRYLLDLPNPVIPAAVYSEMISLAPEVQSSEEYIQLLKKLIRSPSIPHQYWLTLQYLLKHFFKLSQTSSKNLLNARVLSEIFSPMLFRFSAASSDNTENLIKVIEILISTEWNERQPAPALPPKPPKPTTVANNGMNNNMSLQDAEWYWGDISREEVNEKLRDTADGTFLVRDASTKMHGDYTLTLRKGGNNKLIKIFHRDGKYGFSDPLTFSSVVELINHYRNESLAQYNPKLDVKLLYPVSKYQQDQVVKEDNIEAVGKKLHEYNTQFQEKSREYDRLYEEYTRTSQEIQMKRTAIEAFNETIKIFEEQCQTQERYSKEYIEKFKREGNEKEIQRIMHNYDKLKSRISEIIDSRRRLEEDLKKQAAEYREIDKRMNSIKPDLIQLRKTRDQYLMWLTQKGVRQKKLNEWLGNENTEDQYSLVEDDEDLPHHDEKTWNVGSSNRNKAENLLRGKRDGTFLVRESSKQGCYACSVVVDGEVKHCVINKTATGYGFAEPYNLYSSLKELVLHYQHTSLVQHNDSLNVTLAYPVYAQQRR

With Cn1cc(-c2ccc(-c3ccc4ncc5c(c4c3)n(C3CCCN(C(=O)CO)C3)c(=O)n5C)cn2)cn1 (stereo not shown) [Example 1, 1-(1-(2-hydroxyacetyl)piperidin-3-yl)-3-methyl-8-(6-(1-methyl-1H-pyrazol-4-yl)pyridin-3-yl)-1H-imidazo[4,5-c]quinolin-2(3H)-one] the EC50 (SK-BR3/BT474) was < 500 nM, the EC50 (MV-4-11) was < 1000 nM and the IC50 (mTOR kinase) was 10 to 100 nM. For the same molecule, the solubility ([1]; aqueous buffer, water) was > 1000 µg/mL and the EC50 (PC-3) was < 200 nM.

For C[C@H](O)C(=O)N1CCCC(n2c(=O)n(C)c3cnc4ccc(-c5ccc(-c6cnn(C)c6)nc5)cc4c32)C1 (stereo partly drawn) [Example 4, 1-(1-((S)-2-hydroxypropionyl)piperidin-3-yl)-3-methyl-8-(6-(1-methyl-1H-pyrazol-4-yl)pyridin-3-yl)-1H-imidazo[4,5-c]quinolin-2(3H)-one], the EC50 (SK-BR3/BT474) was < 500 nM, the EC50 (MV-4-11) was < 500 nM and the IC50 (mTOR kinase) was 10 to 100 nM. For the same molecule, the EC50 (PC-3) was < 200 nM.

For C[C@@H](O)C(=O)N1CCCC(n2c(=O)n(C)c3cnc4ccc(-c5ccc(-c6cnn(C)c6)nc5)cc4c32)C1 (stereo partly drawn) [Example 5, 1-(1-((R)-2-hydroxypropionyl)piperidin-3-yl)-3-methyl-8-(6-(1-methyl-1H-pyrazol-4-yl)pyridin-3-yl)-1H-imidazo[4,5-c]quinolin-2(3H)-one], the EC50 (SK-BR3/BT474) was < 200 nM, the EC50 (MV-4-11) was < 500 nM and the IC50 (mTOR kinase) was < 10 nM. The EC50 (PC-3) was < 500 nM.

In the case of Cn1cc(-c2ccc(-c3ccc4ncc5c(c4c3)n(C3CCN(S(C)(=O)=O)C3)c(=O)n5C)cn2)cn1 (stereo not shown) [Example 6, 3-methyl-8-(6-(1-methyl-1H-pyrazol-4-yl)pyridin-3-yl)-1-(1-(methanesulfonyl)pyrrolidin-3-yl)-1H-imidazo[4,5-c]quinolin-2 (3H)-one], the EC50 (SK-BR3/BT474) is reported as < 50 nM, the EC50 (MV-4-11) is reported as < 200 nM and the IC50 (mTOR kinase) is reported as < 10 nM. The EC50 (PC-3) was < 50 nM.

With CCN1CCC(n2c(=O)n(C)c3cnc4ccc(-c5ccc(-c6cnn(C)c6)nc5)cc4c32)C1 (stereo not shown) [Example 10, 1-(1-ethylpyrrolidin-3-yl)-3-methyl-8-(6-(1-methyl-1H-pyrazol-4-yl)pyridin-3-yl)-1H-imidazo[4,5-c]quinolin-2(3H)-one] the EC50 (SK-BR3/BT474) was < 1000 nM, the EC50 (MV-4-11) was < 1000 nM and the IC50 (mTOR kinase) was 100 to 1000 nM. For the same molecule, the EC50 (PC-3) was < 200 nM.

In the case of Cn1cc(-c2ccc(-c3ccc4ncc5c(c4c3)n([C@H]3CC[C@H](O)CC3)c(=O)n5C)cn2)cn1 [Example 17, 1-((1r,4r)-4-hydroxycyclohexyl)-3-methyl-8-(6-(1-methyl-1H-pyrazol-4-yl)pyridin-3-yl)-1H-imidazo[4,5-c]quinolin-2(3H)-one], the EC50 (SK-BR3/BT474) is reported as < 200 nM, the EC50 (MV-4-11) is reported as < 500 nM and the IC50 (mTOR kinase) is reported as < 10 nM. The EC50 (PC-3) was < 100 nM.

In the case of Cn1c(=O)n([C@H]2CC[C@@H](O)CC2)c2c3cc(-c4ccc(-c5ccccc5)nc4)ccc3ncc21 [Example 19, 1-((1s,4s)-4-hydroxycyclohexyl)-3-methyl-8-(6-phenylpyridin-3-yl)-1H-imidazo[4,5-c]quinolin-2(3H)-one], the EC50 (SK-BR3/BT474) is reported as < 100 nM, the EC50 (MV-4-11) is reported as < 200 nM and the IC50 (mTOR kinase) is reported as < 10 nM. For the same molecule, the solubility ([1]; aqueous with cosolvent or surfactant or cyclodextrin, 30% hydroxypropyl-β-cyclodextrin) was > 1000 µg/mL and the EC50 (PC-3) was < 50 nM.

In the case of COc1ncc(-c2ccc3ncc4c(c3c2)n([C@H]2CC[C@@H](O)CC2)c(=O)n4C)cc1C [Example 20, 1-((1s,4s)-4-hydroxycyclohexyl)-8-(6-methoxyl-5-methylpyridin-3-yl)-3-methyl-1H-imidazo[4,5-c]quinolin-2(3H)-one], the EC50 (SK-BR3/BT474) is reported as < 500 nM, the EC50 (MV-4-11) is reported as < 200 nM and the IC50 (mTOR kinase) is reported as 10 to 100 nM. The EC50 (PC-3) was < 200 nM.

With Cn1c(=O)n([C@H]2CC[C@@H](O)CC2)c2c3cc(-c4cnn(-c5ccccc5)c4)ccc3ncc21 [Example 21, 1-((1s,4s)-4-hydroxycyclohexyl)-3-methyl-8-(1-phenyl-1H-pyrazol-4-yl)-1H-imidazo[4,5-c]quinolin-2(3H)-one] the EC50 (SK-BR3/BT474) was < 500 nM, the EC50 (MV-4-11) was < 200 nM and the IC50 (mTOR kinase) was 10 to 100 nM. The EC50 (PC-3) was < 500 nM.

For Cc1ccc(-c2ccc3ncc4c(c3c2)n([C@H]2CC[C@@H](O)CC2)c(=O)n4C)cn1 [Example 22, 1-((1s,4s)-4-hydroxycyclohexyl)-3-methyl-8-(6-methylpyridin-3-yl)-1H-imidazo[4,5-c]quinolin-2(3H)-one], the EC50 (SK-BR3/BT474) was < 200 nM, the EC50 (MV-4-11) was < 200 nM and the IC50 (mTOR kinase) was 10 to 100 nM. The EC50 (PC-3) was < 200 nM.

With Cn1c(=O)n([C@H]2CC[C@H](O)CC2)c2c3cc(-c4cnn(-c5ccccc5)c4)ccc3ncc21 [Example 23, 1-((1r,4r)-4-hydroxycyclohexyl)-3-methyl-8-(1-phenyl-1H-pyrazol-4-yl)-1H-imidazo[4,5-c]quinolin-2(3H)-one] the EC50 (SK-BR3/BT474) was < 500 nM, the EC50 (MV-4-11) was < 500 nM and the IC50 (mTOR kinase) was 10 to 100 nM. The EC50 (PC-3) was < 200 nM.

With COc1ncc(-c2ccc3ncc4c(c3c2)n([C@H]2CC[C@H](O)CC2)c(=O)n4C)cc1C [Example 24, 1-((1r,4r)-4-hydroxycyclohexyl)-8-(6-methoxyl-5-methylpyridin-3-yl)-3-methyl-1H-imidazo[4,5-c]quinolin-2(3H)-one] the EC50 (SK-BR3/BT474) was < 500 nM, the EC50 (MV-4-11) was < 500 nM and the IC50 (mTOR kinase) was 10 to 100 nM. For the same molecule, the EC50 (PC-3) was < 200 nM.

For Cn1cc(-c2ccc(-c3ccc4ncc5c(c4c3)n([C@@H]3CCN(S(C)(=O)=O)C3)c(=O)n5C)cn2)cn1 [Example 27, (R)-3-methyl-8-(6-(1-methyl-1H-pyrazol-4-yl)pyridin-3-yl)-1-(1-(methanesulfonyl)pyrrolidin-3-yl)-1H-imidazo[4,5-c]quinolin-2(3H)-one], the IC50 [2] was < 10 nM, the EC50 (SK-BR3/BT474) was < 1000 nM and the IC50 (mTOR kinase) was 100 to 1000 nM.

In the case of Cn1cc(-c2ccc(-c3ccc4ncc5c(c4c3)n(C3CCCC(O)C3)c(=O)n5C)cn2)cn1 (stereo not shown) [Example 32, 1-(3-hydroxycyclohexyl)-3-methyl-8-(6-(1-methyl-1H-pyrazol-4-yl)pyridin-3-yl)-1H-imidazo[4,5-c]quinolin-2(3H)-one], the EC50 (SK-BR3/BT474) is reported as < 100 nM, the EC50 (MV-4-11) is reported as < 200 nM and the IC50 (mTOR kinase) is reported as < 10 nM. The EC50 (PC-3) was < 50 nM.

In the case of CCS(=O)(=O)N1CCC[C@@H](n2c(=O)n(C)c3cnc4ccc(-c5ccc(-c6cnn(C)c6)nc5)cc4c32)C1 [Example 52, (R)-1-(1-(ethylsulfonyl)piperidin-3-yl)-3-methyl-8-(6-(1-methyl-1H-pyrazol-4-yl)pyridin-3-yl)-1H-imidazo[4,5-c]quinolin-2(3H)-one], the EC50 (SK-BR3/BT474) is reported as 50 nM, the EC50 (MV-4-11) is reported as < 30 nM and the solubility ([1]; aqueous buffer, water) is reported as > 1000 µg/mL. For the same molecule, the EC50 (PC-3) was < 30 nM.
